From US9169217B2, “Arylalkyl esters of 4-amino-6-(substituted phenyl)-picolinates and 6-amino-2-(substituted phenyl)-pyrimidinecarboxylates and their use as selective herbicides for crops” (Dow AgroSciences LLC, priority 2011, dated 2015) come the findings set out here.

Format in all cases: in vivo
Test [1] deals with Triticum aestivum (Wheat, spring). The test can be described thus: General postemergence herbicidal activity (Example 13). The conditions noted are these: post-emergent spray, 70 g ai/ha, 14 DAA; crop (spring wheat). Here is the method: (§1) Seeds or nutlets of the desired test plant species were planted in Sun Gro Metro-Mix® 360 planting mixture, which typically has a pH of 6.0 to 6.8 and an organic matter content of about 30 percent, in plastic pots with a surface area of 84.6 square centimeters (cm^2). When required to ensure good germination and healthy plants, a fungicide treatment and/or other chemical or physical treatment was applied. The plants were grown for 7-31 days (d) in a greenhouse with an approximate 15 hour (h) photoperiod which was maintained at about 23-29° C. during the day and 22-28° C. during the night. Nutrients and water were added on a regular basis and supplemental lighting was provided with overhead metal halide 1000-Watt lamps as necessary. The plants were employed for testing when they reached the first or second true leaf stage.
(§2) Treatments consisted of esters of compounds 33 and 39 and F and G. Compound F is methyl 6-amino-2-(4-chloro-2-fluoro-3-methoxyphenyl)-5-methoxypyrimidine-4-carboxylate; and compound G is methyl 4-amino-3-chloro-6-(4-chloro-2-fluoro-3-methoxyphenyl)picolinate. A weighed amount, determined by the highest rate to be tested, of each test compound was placed in a 25 mL glass vial and was dissolved in 4 mL of a 97:3 v/v (volume/volume) mixture of acetone and dimethyl sulfoxide (DMSO) to obtain concentrated stock solutions. […] The concentrated stock solutions obtained were diluted with 20 mL of an aqueous mixture containing acetone, water, isopropyl alcohol, DMSO, Atplus 411F crop oil concentrate, and Triton® X-155 surfactant in a 48.5:39:10:1.5:1.0:0.02 v/v ratio to obtain spray solutions containing the highest application rates. Additional application rates were obtained by serial dilution of 12 mL of the high rate solution into a solution containing 2 mL of a 97:3 v/v (volume/volume) mixture of acetone and DMSO and 10 mL of an aqueous mixture containing acetone, water, isopropyl alcohol, DMSO, Atplus 411F crop oil concentrate, and Triton® X-155 surfactant in a 48.5:39:10:1.5:1.0:0.02 v/v ratio to obtain ½×, ¼×, ⅛× and 1/16× rates of the high rate. Compound requirements are based upon a 12 mL application volume at a rate of 187 liters per hectare (L/ha). Formulated compounds were applied to the plant material with an overhead Mandel track sprayer equipped with 8002E nozzles calibrated to deliver 187 L/ha over an application area of 0.503 square meters (m^2) at a spray height of 18 inches (43 cm) above the average plant canopy height. Control plants were sprayed in the same manner with the solvent blank.
(§3) The treated plants and control plants were placed in a greenhouse as described above and watered by sub-irrigation to prevent wash-off of the test compounds. After 14 d, the condition of the test plants as compared with that of the untreated plants was determined visually and scored on a scale of 0 to 100 percent where 0 corresponds to no injury and 100 corresponds to complete kill.

The subject of test [2] is Oryza sativa (Rice). The test is described as above. The conditions noted are these: post-emergent spray, 70 g ai/ha, 14 DAA; crop (rice). On the procedure:
as §1, §2, §3

Test [3] deals with Viola tricolor (Pansy, wild). The description is as above. The conditions noted are these: post-emergent spray, 70 g ai/ha, 14 DAA. On the procedure: as §1, §2, §3
In test [4] the test system is Stellaria media (Chickweed, common). Described as above. The conditions noted are these: post-emergent spray, 70 g ai/ha, 14 DAA. Here is the method:
as §1, §2, §3

For test [5], the system named is Avena fatua (Oat, wild). Nature of the test: Postemergence herbicidal activity in cereal crops (Example 14). Particulars: wheat cropping systems, postemergence spray, 35 g ae/ha, 21 DAA.
Test [6] concerns Setaria viridis (Foxtail, green). The test is described as above. The conditions noted are these: wheat cropping systems, postemergence spray, 17.5 g ae/ha, 21 DAA.
The test system of test [7] is Lolium multiflorum (Ryegrass, Italian). The description is as above. The conditions noted are these: wheat cropping systems, postemergence spray, 17.5 g ae/ha, 21 DAA.
Test [8] deals with Kochia scoparia (Kochia). The description is as above. Particulars: wheat cropping systems, postemergence spray, 35 g ae/ha, 21 DAA.

`COC(=O)c1nc(-c2ccc(Cl)c(OC)c2F)nc(N)c1OC` [Compound F, methyl 6-amino-2-(4-chloro-2-fluoro-3-methoxyphenyl)-5-methoxypyrimidine-4-carboxylate, reference compound]: the “Visual Injury (%) TRZAS” value in test [1] is 70%. In addition, the “Visual Injury (%) ORYSA” value in test [2] stood at 75%. Moreover, the “Visual Injury (%) VIOTR” value in test [3] came to 80%. In addition, the “Visual Injury (%) STEME” value in test [4] is 90%. For the same compound, the “Visual Injury (%) AVEFA” value in test [5] is recorded as 20%. Also, in test [6], the “Visual Injury (%) SETVI” value worked out at 85%. In addition, the “Visual Injury (%) LOLMU” value in test [7] is given as 60%.
As for `COC(=O)c1nc(-c2ccc(Cl)c(OC)c2F)cc(N)c1Cl` [Compound G, methyl 4-amino-3-chloro-6-(4-chloro-2-fluoro-3-methoxyphenyl)picolinate, reference compound], the “Visual Injury (%) KCHSC” value in test [8] was 87%.
`COc1c(Cl)ccc(-c2cc(N)c(Cl)c(C(=O)OCc3ccccc3)n2)c1F` [Compound 39]: the “Visual Injury (%) KCHSC” value in test [8] was determined as 95%.
